Laboratory results as given in patent US20140357713A1, “ANTIMICROBIAL COMPOUNDS AND METHODS OF USE” (NexMed Holdings, Inc., priority 2012, published 2014).
Structures can show the parent of a compound that is named as a salt.

Assays:
Experiment in all cases: MIC assay with different strains, Example 35
Format in all cases: cell-based
[1] = system: Streptococcus pneumonia (ATCC 6303)
Description: (§1) The minimum inhibitory concentration (MIC) is used to determine the lowest concentration of a test product claiming antimicrobial effects that will inhibit growth of a microorganism. Each microbial suspension was adjusted approximately 10^7 to 10^8 colony forming units (CFU) per mL and labeled as the stock suspension. The stock suspension was further diluted to 1:200 in Mueller Hinton broth to obtain a test sample having a concentration of […]. The test sample was then tested for MIC as described in M202.R02. After incubation, each tube was examined for turbidity, which indicated growth or no growth. For the tubes where the product rendered the media turbid, an aliquot of the media was streaked onto agar plates to confirm growth or lack of growth.

[2] = system: Enterococcus faecalis (ATCC 51299)
Description: as §1

[3] = system: Acinetobacter baumannii (ATCC 19606)
Description: as §1

[4] = system: Enterobacter cloacae (ATCC 13047)
Description: as §1

[5] = system: Proteus mirabilis (ATCC 7002)
Description: as §1

[6] = system: Staphylococcus haemolyticus (ATCC 29970)
Description: as §1

[7] = system: Serratia marcescens (ATCC 14756)
Description: as §1

[8] = system: Staphylococcus saprophyticus (ATCC 15305)
Description: as §1

[9] = system: Staphylococcus hominis (ATCC 27844)
Description: as §1

[10] = system: Enterobacter aerogenes (ATCC 13048)
Description: as §1

[11] = system: Acinetobacter iwoffi (ATCC 15309)
Description: as §1

[12] = system: Staphylococcus epidermidis (ATCC 12228)
Description: as §1

[13] = system: Bacillus subtilis (ATCC 6633)
Description: as §1

[14] = system: Candida albicans (ATCC 10231)
Description: as §1

[15] = system: Escherichia coli (ATCC 11229)
Description: as §1

[16] = system: Corynebacterium jeikeium (ATCC 43734)
Description: as §1

Structure (SMILES): CCCCCCCCCCCCOC(=O)C(C)N(C)C (centres unmarked) [Nex-05, Dodecyl 2-(dimethylamino)propanoate hydrochloride]
- MIC ([1]; Example 35): 0.156%
- Growth/no growth ([1]; Sample Concentration 0.039%): Growth
- Growth/no growth ([1]; Sample Concentration 0.078%): Growth
- MIC ([2]; Example 35): 0.313%
- Growth/no growth ([2]; Sample Concentration 0.039%): Growth
- Growth/no growth ([2]; Sample Concentration 0.078%): Growth
- Growth/no growth ([2]; Sample Concentration 0.156%): Growth
- MIC ([3]; Example 35): 0.313%
- Growth/no growth ([3]; Sample Concentration 0.039%): Growth
- Growth/no growth ([3]; Sample Concentration 0.078%): Growth
- Growth/no growth ([3]; Sample Concentration 0.156%): Growth
- MIC ([4]; Example 35): 0.625%
- Growth/no growth ([4]; Sample Concentration 0.039%): Growth
- Growth/no growth ([4]; Sample Concentration 0.078%): Growth
- Growth/no growth ([4]; Sample Concentration 0.156%): Growth
- Growth/no growth ([4]; Sample Concentration 0.313%): Growth
- MIC ([5]; Example 35): 1.25%
- Growth/no growth ([5]; Sample Concentration 0.039%): Growth
- Growth/no growth ([5]; Sample Concentration 0.078%): Growth
- Growth/no growth ([5]; Sample Concentration 0.156%): Growth
- Growth/no growth ([5]; Sample Concentration 0.313%): Growth
- Growth/no growth ([5]; Sample Concentration 0.625%): Growth
- MIC ([6]; Example 35): 0.313%
- Growth/no growth ([6]; Sample Concentration 0.039%): Growth
- Growth/no growth ([6]; Sample Concentration 0.078%): Growth
- Growth/no growth ([6]; Sample Concentration 0.156%): Growth
- MIC ([7]; Example 35): 2.5%
- Growth/no growth ([7]; Sample Concentration 0.039%): Growth
- Growth/no growth ([7]; Sample Concentration 0.078%): Growth
- Growth/no growth ([7]; Sample Concentration 0.156%): Growth
- Growth/no growth ([7]; Sample Concentration 0.313%): Growth
- Growth/no growth ([7]; Sample Concentration 0.625%): Growth
- Growth/no growth ([7]; Sample Concentration 1.25%): Growth
- MIC ([8]; Example 35): 0.625%
- Growth/no growth ([8]; Sample Concentration 0.039%): Growth
- Growth/no growth ([8]; Sample Concentration 0.078%): Growth
- Growth/no growth ([8]; Sample Concentration 0.156%): Growth
- Growth/no growth ([8]; Sample Concentration 0.313%): Growth
- MIC ([9]; Example 35): 0.625%
- Growth/no growth ([9]; Sample Concentration 0.039%): Growth
- Growth/no growth ([9]; Sample Concentration 0.078%): Growth
- Growth/no growth ([9]; Sample Concentration 0.156%): Growth
- Growth/no growth ([9]; Sample Concentration 0.313%): Growth
- MIC ([10]; Example 35): 1.25%
- Growth/no growth ([10]; Sample Concentration 0.039%): Growth
- Growth/no growth ([10]; Sample Concentration 0.078%): Growth
- Growth/no growth ([10]; Sample Concentration 0.156%): Growth
- Growth/no growth ([10]; Sample Concentration 0.313%): Growth
- Growth/no growth ([10]; Sample Concentration 0.625%): Growth
- MIC ([11]; Example 35): 0.156%
- Growth/no growth ([11]; Sample Concentration 0.039%): Growth
- Growth/no growth ([11]; Sample Concentration 0.078%): Growth
- MIC ([12]; Example 35): 0.313%
- Growth/no growth ([12]; Sample Concentration 0.039%): Growth
- Growth/no growth ([12]; Sample Concentration 0.078%): Growth
- Growth/no growth ([12]; Sample Concentration 0.156%): Growth
- MIC ([13]; Example 35): 0.313%
- Growth/no growth ([13]; Sample Concentration 0.039%): Growth
- Growth/no growth ([13]; Sample Concentration 0.078%): Growth
- Growth/no growth ([13]; Sample Concentration 0.156%): Growth
- MIC ([14]; Example 35): 0.313%
- Growth/no growth ([14]; Sample Concentration 0.039%): Growth
- Growth/no growth ([14]; Sample Concentration 0.078%): Growth
- Growth/no growth ([14]; Sample Concentration 0.156%): Growth
- MIC ([15]; Example 35): 0.625%
- Growth/no growth ([15]; Sample Concentration 0.039%): Growth
- Growth/no growth ([15]; Sample Concentration 0.078%): Growth
- Growth/no growth ([15]; Sample Concentration 0.156%): Growth
- Growth/no growth ([15]; Sample Concentration 0.313%): Growth
- MIC ([16]; Example 35): 0.625%
- Growth/no growth ([16]; Sample Concentration 0.039%): Growth
- Growth/no growth ([16]; Sample Concentration 0.078%): Growth
- Growth/no growth ([16]; Sample Concentration 0.156%): Growth
- Growth/no growth ([16]; Sample Concentration 0.313%): Growth
